Measured values: US10227323B2, “Glucosylceramide synthase inhibitors for the treatment of diseases” (BIOMARIN PHARMACEUTICAL INC., priority 2013, dated 2019)

Target: T1, GCS (Canis lupus familiaris, UniProt A0A8I3MXG6)
T1 sequence (A0A8I3MXG6 1-394): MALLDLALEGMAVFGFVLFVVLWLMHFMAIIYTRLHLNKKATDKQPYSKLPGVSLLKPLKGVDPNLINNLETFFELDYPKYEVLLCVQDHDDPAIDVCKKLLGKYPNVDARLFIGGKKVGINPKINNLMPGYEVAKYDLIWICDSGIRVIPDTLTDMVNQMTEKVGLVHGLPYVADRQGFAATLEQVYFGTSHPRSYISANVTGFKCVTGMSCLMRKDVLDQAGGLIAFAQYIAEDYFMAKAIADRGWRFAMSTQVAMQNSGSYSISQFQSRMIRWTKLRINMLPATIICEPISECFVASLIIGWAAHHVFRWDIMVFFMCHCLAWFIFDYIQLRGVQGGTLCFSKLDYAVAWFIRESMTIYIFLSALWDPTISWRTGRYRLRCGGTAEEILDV
Assay: Assay 1: GCS Enzymatic Assay (MDCK cell lysate, C6-NBD-Ceramide, LC/MS)
Format: biochemical, canine
Conditions: Table 2; data marked by *
How it was run: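 LC/MS/MS measurement of glucosylceramide and NBD-ceramide after a 1 h, 37 °C reaction with 100 μM UDP-glucose and 10 μM C6-NBD-ceramide gave IC50s or percent inhibition.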

SMILES	% inhibition generated from Assay 1
Cn1ncc2cc(C(=O)C(=O)N[C@H](CN3CCCC3)[C@H](O)c3ccc(OC4CC4)c(Cl)c3)ccc21 [Compound 224, N-((1R,2R)-1-(3-chloro-4-cyclopropoxyphenyl)-1-hydroxy-3-(pyrrolidin-1-yl)propan-2-yl)-2-(1-methyl-1H-indazol-5-yl)-2-oxoacetamide]	A* (the compound had a % inhibition of a percent inhibition of greater than or equal to about 50%)
O=C(N[C@H](CN1CCCC1)[C@H](O)c1ccc(OC2CC2)c(Cl)c1)C(=O)c1ccc2sc(Cl)cc2c1 [Compound 225, N-((1R,2R)-1-(3-chloro-4-cyclopropoxyphenyl)-1-hydroxy-3-(pyrrolidin-1-yl)propan-2-yl)-2-(2-chlorobenzo[b]thiophen-5-yl)-2-oxoacetamide]	B* (the compound had a % inhibition of greater than or equal to about 3% but less than about 50%)
O=C(N[C@H](CN1CCCC1)[C@H](O)c1cc(F)c2c(c1)OCCO2)C(=O)c1csc(-c2ccc(F)cc2)n1 [Compound 226, N-((1R,2R)-1-(8-fluoro-2,3-dihydrobenzo[b][1,4]dioxin-6-yl)-1-hydroxy-3-(pyrrolidin-1-yl)propan-2-yl)-2-(2-(4-fluorophenyl)thiazol-4-yl)-2-oxoacetamide]	B* (the compound had a % inhibition of greater than or equal to about 3% but less than about 50%)
O=C(N[C@H](CN1CCCC1)[C@H](O)c1ccc2c(c1)OCCO2)C(=O)c1csc(-c2ccc(F)cc2)n1 [Compound 229, N-((1R,2R)-1-(2,3-dihydrobenzo[b][1,4]dioxin-6-yl)-1-hydroxy-3-(pyrrolidin-1-yl)propan-2-yl)-2-(2-(4-fluorophenyl)thiazol-4-yl)-2-oxoacetamide]	B* (the compound had a % inhibition of greater than or equal to about 3% but less than about 50%)
O=C(N[C@H](CN1CCCC1)[C@H](O)c1ccc(OC2CC2)c(Cl)c1)C(=O)c1cccc(N2CCCCC2)c1 [Compound 238, N-((2R)-1-(3-chloro-4-cyclopropoxyphenyl)-1-hydroxy-3-(pyrrolidin-1-yl)propan-2-yl)-2-oxo-2-(3-(piperidin-1-yl)phenyl)acetamide]	B* (the compound had a % inhibition of greater than or equal to about 3% but less than about 50%)
Cn1ncc2ccc(C(=O)C(=O)N[C@H](CN3CCCC3)[C@H](O)c3cc(F)c4c(c3)OCCO4)cc21 [Compound 245, N-((1R,2R)-1-(8-fluoro-2,3-dihydrobenzo[b][1,4]dioxin-6-yl)-1-hydroxy-3-(pyrrolidin-1-yl)propan-2-yl)-2-(1-methyl-1H-indazol-6-yl)-2-oxoacetamide]	A* (the compound had a % inhibition of a percent inhibition of greater than or equal to about 50%)

Same assay, conditions: Table 2; data without asterisk; read-out: IC50 (nM) generated from Assay 1

IC50	SMILES
< 50 nM	Cn1ncc2cc(-c3ccc(C(=O)C(=O)N[C@H](CN4CCC4)[C@H](O)c4cc(F)c5c(c4)OCCO5)cc3)ccc21 [Compound 223, N-((1R,2R)-3-(azetidin-1-yl)-1-(8-fluoro-2,3-dihydrobenzo[b][1,4]dioxin-6-yl)-1-hydroxypropan-2-yl)-2-(4-(1-methyl-1H-indazol-5-yl)phenyl)-2-oxoacetamide]
< 50 nM	O=C(N[C@H](CN1CCC1)[C@H](O)c1cc(F)c2c(c1)OCCO2)C(=O)c1ccc(N2CCCCC2)cc1 [Compound 227, N-((1R,2R)-3-(azetidin-1-yl)-1-(8-fluoro-2,3-dihydrobenzo[b][1,4]dioxin-6-yl)-1-hydroxypropan-2-yl)-2-oxo-2-(4-(piperidin-1-yl)phenyl)acetamide]
< 50 nM	O=C(N[C@H](CN1CCCC1)[C@H](O)c1cc(F)c2c(c1)OCCO2)C(=O)c1ccc(-c2ccccn2)cc1 [Compound 228, N-((1R,2R)-1-(8-fluoro-2,3-dihydrobenzo[b][1,4]dioxin-6-yl)-1-hydroxy-3-(pyrrolidin-1-yl)propan-2-yl)-2-oxo-2-(4-(pyridin-2-yl)phenyl)acetamide]
< 50 nM	O=C(N[C@H](CN1CCCC1)[C@H](O)c1cc(F)c2c(c1)OCCO2)C(=O)c1ccc(-c2ccc(F)cc2)s1 [Compound 230, N-((1R,2R)-1-(8-fluoro-2,3-dihydrobenzo[b][1,4]dioxin-6-yl)-1-hydroxy-3-(pyrrolidin-1-yl)propan-2-yl)-2-(5-(4-fluorophenyl)thiophen-2-yl)-2-oxoacetamide]
< 50 nM	O=C(N[C@H](CN1CCCC1)[C@H](O)c1ccc(OC2CC2)c(Cl)c1)C(=O)c1ccc(N2CCCCC2)cc1 [Compound 231, N-((1R,2R)-1-(3-chloro-4-cyclopropoxyphenyl)-1-hydroxy-3-(pyrrolidin-1-yl)propan-2-yl)-2-oxo-2-(4-(piperidin-1-yl)phenyl)acetamide]
< 50 nM	Cn1ncc2ccc(-c3ccc(C(F)(F)C(=O)N[C@H](CN4CCCC4)[C@H](O)c4ccc(OC5CC5)c(Cl)c4)cc3)cc21 [Compound 232, N-((1R,2R)-1-(3-chloro-4-cyclopropoxyphenyl)-1-hydroxy-3-(pyrrolidin-1-yl)propan-2-yl)-2,2-difluoro-2-(4-(1-methyl-1H-indazol-6-yl)phenyl)acetamide]
< 50 nM	O=C(N[C@H](CN1CCCC1)[C@H](O)c1ccc(OC2CC2)c(Cl)c1)C(=O)c1ccc2sccc2c1 [Compound 233, 2-(benzo[b]thiophen-5-yl)-N-((1R,2R)-1-(3-chloro-4-cyclopropoxyphenyl)-1-hydroxy-3-(pyrrolidin-1-yl)propan-2-yl)-2-oxoacetamide]
< 50 nM	O=C(N[C@H](CN1CCCC1)[C@H](O)c1cc(Cl)c2c(c1)OCCO2)C(=O)c1ccc(-c2ccc(F)cc2)cc1 [Compound 234, N-((1R,2R)-1-(8-chloro-2,3-dihydrobenzo[b][1,4]dioxin-6-yl)-1-hydroxy-3-(pyrrolidin-1-yl)propan-2-yl)-2-(4′-fluoro-[1,1′-biphenyl]-4-yl)-2-oxoacetamide]
< 50 nM	Cn1ncc2ccc(-c3ccc(C(F)(F)C(=O)N[C@H](CN4CCCC4)[C@H](O)c4ccc5c(c4)OCCO5)cc3)cc21 [Compound 235, N-((1R,2R)-1-(2,3-dihydrobenzo[b][1,4]dioxin-6-yl)-1-hydroxy-3-(pyrrolidin-1-yl)propan-2-yl)-2,2-difluoro-2-(4-(1-methyl-1H-indazol-6-yl)phenyl)acetamide]
< 50 nM	Cn1ncc2ccc(-c3ccc(C(F)(F)C(=O)N[C@H](CN4CCCC4)[C@H](O)c4cc(F)c5c(c4)OCCO5)cc3)cc21 [Compound 236, 2,2-difluoro-N-((1R,2R)-1-(8-fluoro-2,3-dihydrobenzo[b][1,4]dioxin-6-yl)-1-hydroxy-3-(pyrrolidin-1-yl)propan-2-yl)-2-(4-(1-methyl-1H-indazol-6-yl)phenyl)acetamide]
< 50 nM	Cn1cc2ccc(-c3ccc(C(F)(F)C(=O)N[C@H](CN4CCCC4)[C@H](O)c4ccc(OC5CC5)c(Cl)c4)cc3)cc2n1 [Compound 237, N-((1R,2R)-1-(3-chloro-4-cyclopropoxyphenyl)-1-hydroxy-3-(pyrrolidin-1-yl)propan-2-yl)-2,2-difluoro-2-(4-(2-methyl-2H-indazol-6-yl)phenyl)acetamide]
< 50 nM	O=C(N[C@H](CN1CCCC1)[C@H](O)c1cc(F)c2c(c1)OCCO2)C(F)(F)c1ccc(-c2ccc(F)cc2)s1 [Compound 239, 2,2-difluoro-N-((1R,2R)-1-(8-fluoro-2,3-dihydrobenzo[b][1,4]dioxin-6-yl)-1-hydroxy-3-(pyrrolidin-1-yl)propan-2-yl)-2-(5-(4-fluorophenyl)thiophen-2-yl)acetamide]
< 50 nM	Cn1cc2cc(-c3ccc(C(=O)C(=O)N[C@H](CN4CCCC4)[C@H](O)c4cc(F)c5c(c4)OCCO5)cc3)ccc2n1 [Compound 240, N-((1R,2R)-1-(8-fluoro-2,3-dihydrobenzo[b][1,4]dioxin-6-yl)-1-hydroxy-3-(pyrrolidin-1-yl)propan-2-yl)-2-(4-(2-methyl-2H-indazol-5-yl)phenyl)-2-oxoacetamide]
< 50 nM	O=C(N[C@H](CN1CCCC1)[C@H](O)c1ccc(OC2CC2)c(Cl)c1)C(=O)c1ccc(Oc2ccc(F)cc2)cc1 [Compound 241, N-((1R,2R)-1-(3-chloro-4-cyclopropoxyphenyl)-1-hydroxy-3-(pyrrolidin-1-yl)propan-2-yl)-2-(4-(4-fluorophenoxy)phenyl)-2-oxoacetamide]
< 50 nM	O=C(N[C@H](CN1CCCC1)[C@H](O)c1ccc(OC2CC2)c(Cl)c1)C(=O)c1cc2ccc(Cl)cc2s1 [Compound 242, N-((1R,2R)-1-(3-chloro-4-cyclopropoxyphenyl)-1-hydroxy-3-(pyrrolidin-1-yl)propan-2-yl)-2-(6-chlorobenzo[b]thiophen-2-yl)-2-oxoacetamide]
< 50 nM	Cn1ncc2ccc(-c3ccc(C(=O)C(=O)N[C@H](CN4CCCC4)[C@H](O)c4ccc(OC5CC5)c(Cl)c4)cc3)cc21 [Compound 243, N-((1R,2R)-1-(3-chloro-4-cyclopropoxyphenyl)-1-hydroxy-3-(pyrrolidin-1-yl)propan-2-yl)-2-(4-(1-methyl-1H-indazol-6-yl)phenyl)-2-oxoacetamide]
< 50 nM	Cn1ncc2ccc(C(=O)C(=O)N[C@H](CN3CCCC3)[C@H](O)c3ccc(OC4CC4)c(Cl)c3)cc21 [Compound 244, N-((1R,2R)-1-(3-chloro-4-cyclopropoxyphenyl)-1-hydroxy-3-(pyrrolidin-1-yl)propan-2-yl)-2-(1-methyl-1H-indazol-6-yl)-2-oxoacetamide]
